Source: US20070037752A1, “Novel alanyl-amino peptidase inhibitors for functionally influencing different cells and treating immunological, inflammatory, neuronal, and other diseases” (priority 2003, published 2007)
Like-named read-outs stand apart in the source and are kept apart here. Each block holds one compound with its values, some of them ahead of it.

Target: alanyl aminopeptidases (APN) (Homo sapiens, UniProt P15144)
Assay: Inhibition of alanyl aminopeptidase enzymatic activity, fluorogenic substrate (Ala)2-rhodamine 110
Assay type: biochemical
Description: The inhibition characteristics measured are referred to as IC-50 values or ID50 values (the latter marked with “*”) for said enzyme. The enzymatic activity was determined by means of the fluorogenic substrate/product (Ala)2-rhodamine 110.

[1] = Table 4, starred values = ID50, read-out: ID50 APN (values marked with *)
[2] = Table 9, unstarred values, read-out: IC50APN
[3] = Table 3, unstarred values, read-out: IC50APN
[4] = Table 1, unstarred values, read-out: IC50APN
[5] = Table 4, unstarred values, read-out: IC50APN
[6] = Table 8, unstarred values, read-out: IC50APN

alanyl aminopeptidases (APN), sequence (P15144 whole entry, species assumed): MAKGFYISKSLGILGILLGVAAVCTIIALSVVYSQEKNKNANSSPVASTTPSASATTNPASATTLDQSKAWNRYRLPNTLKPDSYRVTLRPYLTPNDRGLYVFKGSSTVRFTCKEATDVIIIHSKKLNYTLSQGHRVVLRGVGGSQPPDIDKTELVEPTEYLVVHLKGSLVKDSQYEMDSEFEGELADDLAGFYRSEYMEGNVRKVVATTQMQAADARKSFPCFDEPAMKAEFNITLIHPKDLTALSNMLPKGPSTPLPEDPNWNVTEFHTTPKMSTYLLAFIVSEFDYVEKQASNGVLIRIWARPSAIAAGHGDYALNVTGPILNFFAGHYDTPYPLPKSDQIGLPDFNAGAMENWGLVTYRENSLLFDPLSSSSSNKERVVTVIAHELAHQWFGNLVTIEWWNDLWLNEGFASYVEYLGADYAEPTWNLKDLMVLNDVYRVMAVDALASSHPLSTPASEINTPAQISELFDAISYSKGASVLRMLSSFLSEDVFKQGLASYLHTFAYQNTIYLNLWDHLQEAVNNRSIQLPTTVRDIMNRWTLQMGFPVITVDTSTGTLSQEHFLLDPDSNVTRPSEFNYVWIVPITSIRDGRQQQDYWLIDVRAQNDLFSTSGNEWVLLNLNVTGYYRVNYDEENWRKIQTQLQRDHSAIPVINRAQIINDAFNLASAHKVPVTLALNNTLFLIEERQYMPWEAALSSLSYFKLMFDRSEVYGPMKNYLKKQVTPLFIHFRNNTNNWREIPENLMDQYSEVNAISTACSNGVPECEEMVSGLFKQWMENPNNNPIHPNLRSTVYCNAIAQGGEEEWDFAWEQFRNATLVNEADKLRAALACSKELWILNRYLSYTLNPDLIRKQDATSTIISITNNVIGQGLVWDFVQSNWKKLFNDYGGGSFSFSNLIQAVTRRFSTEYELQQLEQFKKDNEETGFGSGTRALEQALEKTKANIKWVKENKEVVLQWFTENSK

IC50 [1]: 132 µM
Structure (SMILES): O=C(N/N=C\C=C\c1ccco1)c1cc(-c2cccs2)n[nH]1 [A4.175]

IC50 [2]: 138 µM
Structure (SMILES): NCCCNC(=O)C1Cc2ncn(Cc3ccccc3[N+](=O)[O-])c2CN1Cc1ccccn1 (centres unmarked) [A9.123]

IC50 (Table 11, read-out: IC50APN): 11.8 µM
Structure (SMILES): CN(C)CCCN1CCN(c2nc(N(C)CC(=O)O)c3ncn(Cc4ccc([N+](=O)[O-])cc4)c3n2)CC1 [A11.008]

IC50 [3]: 71.4 µM
Structure (SMILES): N#Cc1c(NC(=O)C(C(F)(F)F)C(F)(F)F)sc2c1CCCC2 [A3.299]

IC50 [4]: 14.2 µM
Structure (SMILES): Cc1ccc(C(OCCC(=O)NO)c2ccccc2)cc1 (centres unmarked) [A1.010]

IC50 [2]: 20.9 µM
Structure (SMILES): COc1ccc(C[C@@H](N)C(=O)N[C@H]2[C@H](O)[C@H](n3cnc4c(N(C)C)ncnc43)O[C@@H]2CO)cc1 [A9.050]

IC50 [1]: 39.7 µM
Structure (SMILES): COc1ccc(C(=O)N/N=C\c2cc(Br)c(O)c(O)c2Br)cc1 [A4.124]

IC50 [3]: 68.9 µM
Structure (SMILES): Cc1ccc(C(=O)N/C(=C\c2ccco2)C(=O)N2CCSCC2)cc1C [A3.297]

IC50 [3]: 56.4 µM
Structure (SMILES): COc1ccccc1NC(=O)/C=C\c1ccco1 [A3.276]

IC50 (Table 11, read-out: IC50APN): 20.2 µM
Structure (SMILES): O=C(N/N=C/c1cc([N+](=O)[O-])ccc1O)c1ccc(O)cc1O [A11.013]

IC50 (Table 13, read-out: IC50APN): 32.4 µM
Structure (SMILES): CC1=C(C#N)C(O)=NC(=O)/C1=C/c1ccc(-c2ccc(Cl)cc2Cl)o1 [A13.018]

IC50 [2]: 30 µM
Structure (SMILES): CCOC(=O)C(C#N)c1c([N+](=O)[O-])c(=O)n(-c2ccccc2)c2ccccc12 (centres unmarked) [A9.078]

IC50 [5]: 34.7 µM
Structure (SMILES): COc1ccccc1C(=O)N/N=C/c1ccc(C)o1 [A4.110]

IC50 [3]: 88.3 µM
Structure (SMILES): Cc1nc(-c2ccc(Br)cc2)c(CC(=O)O)s1 [A3.313]

IC50 [3]: 26.4 µM
Structure (SMILES): Cc1ccc(/C=N/NC(=O)c2cc(O)cc(O)c2)o1 [A3.160]

IC50 [2]: 23.6 µM
Structure (SMILES): O=C(Nc1ccc(O)cc1C(=O)O)c1cccc(N2C(=O)c3cccc4c([N+](=O)[O-])ccc(c34)C2=O)c1 [A9.063]

IC50 [3]: 19.9 µM
Structure (SMILES): COc1ccc(/C(C)=N/NC(=O)CNC(=O)/C=C\c2ccco2)cc1OC [A3.102]

IC50 [5]: 34.2 µM
Structure (SMILES): C/C(=N\NC(=O)c1ccccc1)c1ccc2ccccc2c1O [A4.107]

IC50 [5]: 36.2 µM
Structure (SMILES): Cc1cccc(C(=O)Nc2cccc(C(=O)N/N=C/c3ccc(C)o3)c2)c1 [A4.115]

IC50 [3]: 28.6 µM
Structure (SMILES): C/C(=N\N=C1\SC(CC(=O)O)C(=O)N1c1ccccc1)c1ccco1 (centres unmarked) [A3.174]

IC50 [3]: 4.7 µM
Structure (SMILES): COC(=O)C1=C(C(=O)OC)C(c2cc(Br)ccc2O)c2sc(O)nc2S1 (centres unmarked) [A3.015]

IC50 [3]: 24.9 µM
Structure (SMILES): Cc1ccc(C)n1-c1cccc(C(=O)N/N=C/c2cc(Br)c(O)c(Br)c2)c1 [A3.150]

IC50 [6]: 25 µM
Structure (SMILES): Cn1nc(-c2cccs2)nc2c(=O)n(C)c(=O)nc1-2 [A8.021]

IC50 [6]: 8 µM
Structure (SMILES): CC1SC(N/N=C/c2ccco2)=NC1=O (centres unmarked) [A8.006]

IC50 [3]: 38.4 µM
Structure (SMILES): CC(=O)Nc1ccc(C(=O)N/N=C/c2ccco2)cc1 [A3.230]

IC50 (Table 2, read-out: IC50APN): 93.6 µM
Structure (SMILES): COC(=O)CCC/C=C1/SC[C@@H](NC(=O)c2ccccc2)/C1=N/O [A2.010]

IC50 (Table 11, read-out: IC50APN): 20.3 µM
Structure (SMILES): CC(=O)Oc1ccc([N+](=O)[O-])cc1/C=N/NC(=O)COc1cc(C)ccc1C(C)C [A11.014]

IC50 (Table 13, read-out: IC50APN): 21.4 µM
Structure (SMILES): CC1=C(C#N)C(O)=NC(=O)/C1=C/c1ccc(-c2ccc(Cl)c(C(=O)OC(C)C)c2)o1 [A13.012]

IC50 [3]: 55.8 µM
Structure (SMILES): O=C(NCCc1ccccc1)/C(=C\c1ccco1)NC(=O)c1ccccc1 [A3.275]

IC50 (Table 6, read-out: IC50APN): 69.3 µM
Structure (SMILES): Cc1ccc(S(=O)(=O)N2CCC(C(=O)N/N=C/c3ccco3)CC2)cc1 [A6.017]

IC50 [5]: 22.8 µM
Structure (SMILES): Cc1ccc(/C=N/NC(=O)c2ccc(NC(=O)c3ccccc3C)cc2)o1 [A4.067]

IC50 [2]: 6.3 µM
Structure (SMILES): COC(=O)c1cccc(-c2ccc(/C=C3\C(=O)N(CCO)C(=O)C(C#N)=C3C)o2)c1 [A9.010]

IC50 [3]: 14.4 µM
Structure (SMILES): O=C(N/N=C/c1ccco1)c1cc(-c2ccc(F)cc2)n[nH]1 [A3.066]

IC50 [5]: 23 µM
Structure (SMILES): CC1=NNC(=O)C1CCC(=O)N/N=C\C=C\c1ccco1 (centres unmarked) [A4.068]

IC50 [6]: 12.9 µM
Structure (SMILES): Cc1cccc(C)c1NC(=S)NC(=O)c1cccs1 [A8.010]

IC50 [3]: 37.2 µM
Structure (SMILES): CC1CCN(S(=O)(=O)c2ccc3c(c2)C(Cl)(Cl)C(=O)N3)CC1 [A3.224]

IC50 (Table 12, read-out: IC50APN): 117 µM
Structure (SMILES): COc1c(OCC(O)C(C)(C)O)ccc2c1N=C1OC=CC1C2OC (centres unmarked) [A12.072]

IC50 (Table 9, starred values = ID50, read-out: ID50 APN (values marked with *)): 134 µM
Structure (SMILES): CC(=O)Oc1ccc2c(=O)c(-c3cnn(-c4ccccc4)c3)c(C(F)(F)F)oc2c1OC(C)=O [A9.122]

IC50 [3]: 11.7 µM
Structure (SMILES): Cc1[nH]c2ccccc2c1C(c1cc(Cl)ccc1O)N1CCOCC1 (centres unmarked) [A3.046]

IC50 [5]: 22.2 µM
Structure (SMILES): Cc1ccc(/C=N/NC(=O)COc2ccccc2C)o1 [A4.061]

IC50 (Table 6, read-out: IC50APN): 18 µM
Structure (SMILES): Cc1ccc(S(=O)(=O)CNC(=S)c2ccc(Cl)c(Cl)c2)cc1 [A6.011]

IC50 (Table 3, starred values = ID50, read-out: ID50 APN (values marked with *)): 451 µM
Structure (SMILES): CCOc1ccc(C(=O)N/N=C(/C)c2ccco2)cc1 [A3.352]

IC50 [5]: 16 µM
Structure (SMILES): O=C(N/N=C/c1ccco1)c1ccccc1O [A4.037]

IC50 [2]: 14.3 µM
Structure (SMILES): Clc1ccc(-n2cc3c(-c4ccco4)nnc(-c4nc5ccccc5s4)c3n2)cc1 [A9.034]

IC50 [5]: 50.3 µM
Structure (SMILES): CCCCCCCC(=O)N/N=C/c1ccco1 [A4.143]

IC50 [5]: 91.2 µM
Structure (SMILES): O=C(N/N=C/c1ccco1)c1ccccc1[N+](=O)[O-] [A4.172]

IC50 [4]: 5.6 µM
Structure (SMILES): Cc1cc(Cl)ccc1OCCC(=O)NO [A1.002]
